In patent US20200017495A1, “NOVEL HETEROCYCLIC COMPOUNDS AND THEIR USE IN PREVENTING OR TREATING BACTERIAL INFECTIONS” (priority 2017, published 2020):

Assays:
Test in all cases: MIC of compounds alone and combined with antibacterials, broth microdilution (CLSI)
Assay type in all cases: cell-based
[1] = test system: Morganella morganii (MMO) isolates
Experimental: (§1) Method 2: MIC of Compounds Alone and Combined with Antibacterials Against Bacterial Isolates
(§2) Compounds of the present invention were assessed against genotyped bacterial strains (Table 3, 4) alone or in combination with an antibacterial (Table 2). […] Log phase bacterial suspensions were adjusted to a final density of 5.10^5 CFU/mL in cation-adjusted Mueller-Hinton broth (ca-MHB; Becton-Dickinson and Company) and added to each well (98 μL). Microplates were incubated for 16-20 h at 35° C. in ambient air. The MIC of the compounds was defined as the lowest concentration of said compounds that prevented bacterial growth as read by visual inspection. The MIC of ATB at each compound concentration was defined as the lowest concentration of ATB that prevented bacterial growth as read by visual inspection.

[2] = test system: Providencia rettgeri (PRE) isolates
Experimental: as §1, §2

[3] = test system: Enterobacter cloacae (ECL) isolates
Experimental: as §1, §2

For `C=CC1=C(C(=O)O)N2C(=O)[C@@H](NC(=O)/C(=N\OCC(=O)O)c3csc(N)n3)[C@H]2SC1` [FIX, Cefixime], the “MIC ATB in combination” value ([1]; MMO UFR244, CLA @ 4 μg/mL) was 8 µg/mL, the “MIC ATB in combination” value ([1]; MMO UFR245, AF2 @ 8 μg/mL) was 1 µg/mL and the “MIC ATB in combination” value ([1]; MMO UFR245, AF3 @ 8 μg/mL) was “<=0.25 μg/mL”. For the same compound, the “MIC ATB in combination” value ([1]; MMO UFR245, CLA @ 4 μg/mL) was 64 µg/mL, the “MIC ATB in combination” value ([1]; MMO UFR246, AF2 @ 8 μg/mL) was 1 µg/mL and the “MIC ATB in combination” value ([1]; MMO UFR246, AF3 @ 8 μg/mL) was 0.5 µg/mL. For the same compound, the “MIC ATB in combination” value ([1]; MMO UFR246, CLA @ 4 μg/mL) was 64 µg/mL, the “MIC ATB in combination” value ([1]; MMO UFR247, AF2 @ 8 μg/mL) was “<=0.25 μg/mL” and the “MIC ATB in combination” value ([1]; MMO UFR247, AF3 @ 8 μg/mL) was “<=0.25 μg/mL”. The “MIC ATB in combination” value ([1]; MMO UFR247, CLA @ 4 μg/mL) was 32 µg/mL, the MIC ([1]; strain MMO 200321, genotype TEM-1, CTX-M-15, OXA-1) was >128 µg/mL and the MIC ([1]; strain MMO UFR144, genotype TEM-1, CTX-M-15) was >128 µg/mL. The “MIC ATB in combination” value ([1]; strain MMO UFR145, with AF2 @ 8 μg/mL) was >128 µg/mL, the “MIC ATB in combination” value ([1]; strain MMO UFR145, with AF3 @ 8 μg/mL) was >128 µg/mL and the “MIC ATB in combination” value ([1]; strain MMO UFR145, with CLA @ 4 μg/mL) was >128 µg/mL. The MIC ([1]; strain MMO UFR240, genotype CTX-M-9) was 1 µg/mL, the MIC ([1]; strain MMO UFR241, genotype TEM-1, CTX-M-15) was >128 µg/mL and the MIC ([1]; strain MMO UFR242, genotype TEM-52) was 1024 µg/mL. It also gave an MIC ([1]; strain MMO UFR243, genotype DHA-1) of 8 µg/mL, an MIC ([1]; strain MMO UFR244, genotype DHA-1) of 4 µg/mL and an MIC ([1]; strain MMO UFR245, genotype DHA-1) of 32 µg/mL. For the same compound, the MIC ([1]; strain MMO UFR246, genotype DHA-1) was 32 µg/mL, the MIC ([1]; strain MMO UFR247, genotype DHA-1) was 16 µg/mL and the “MIC ATB in combination” value ([2]; PRE UFR99, AF2 @ 8 μg/mL) was >128 µg/mL. For the same compound, the “MIC ATB in combination” value ([2]; PRE UFR99, AF3 @ 8 μg/mL) was >128 µg/mL, the “MIC ATB in combination” value ([2]; PRE UFR99, CLA @ 4 μg/mL) was >128 µg/mL and the MIC ([2]; strain PRE UFR96, genotype CTX-M-15, NDM-1) was >128 µg/mL. The “MIC ATB in combination” value ([2]; strain PRE UFR96, with AF2 @ 8 μg/mL) was <0.25 µg/mL, the “MIC ATB in combination” value ([2]; strain PRE UFR96, with AF3 @ 8 μg/mL) was <0.25 µg/mL and the “MIC ATB in combination” value ([2]; strain PRE UFR96, with CLA @ 4 μg/mL) was >128 µg/mL. The MIC ([2]; strain PRE UFR97, genotype TEM-1, NDM-1) was >128 µg/mL, the “MIC ATB in combination” value ([2]; strain PRE UFR97, with AF2 @ 8 μg/mL) was >128 µg/mL and the “MIC ATB in combination” value ([2]; strain PRE UFR97, with AF3 @ 8 μg/mL) was >128 µg/mL. The “MIC ATB in combination” value ([2]; strain PRE UFR97, with CLA @ 4 μg/mL) was >128 µg/mL, the MIC ([2]; strain PRE UFR99, genotype OXA-1, OXA-181) was >128 µg/mL and the MIC ([2]; strain PRE UFR236, genotype TEM-1, OXA-48) was 32 µg/mL. The “MIC ATB in combination” value ([2]; strain PRE UFR236, with AF2 @ 8 μg/mL) was “<=0.25 μg/mL”, the “MIC ATB in combination” value ([2]; strain PRE UFR236, with AF3 @ 8 μg/mL) was “<=0.25 μg/mL” and the “MIC ATB in combination” value ([2]; strain PRE UFR236, with CLA @ 4 μg/mL) was 32 µg/mL. For the same compound, the “MIC ATB in combination” value ([3]; ECL 2185D, AF2 @ 8 μg/mL) was >128 µg/mL, the “MIC ATB in combination” value ([3]; ECL 2185D, AF3 @ 8 μg/mL) was >128 µg/mL and the “MIC ATB in combination” value ([3]; ECL 2185D, CLA @ 4 μg/mL) was >128 µg/mL. The “MIC ATB in combination” value ([3]; ECL 190310, AF2 @ 8 μg/mL) was >128 µg/mL, the “MIC ATB in combination” value ([3]; ECL 190310, AF3 @ 8 μg/mL) was 64 µg/mL and the “MIC ATB in combination” value ([3]; ECL 190310, CLA @ 4 μg/mL) was >128 µg/mL. For the same compound, the “MIC ATB in combination” value ([3]; ECL 190408, AF2 @ 8 μg/mL) was <0.25 µg/mL, the “MIC ATB in combination” value ([3]; ECL 190408, AF3 @ 8 μg/mL) was <0.25 µg/mL and the “MIC ATB in combination” value ([3]; ECL 190408, CLA @ 4 μg/mL) was 128 µg/mL. For the same compound, the “MIC ATB in combination” value ([3]; ECL 200138, AF2 @ 8 μg/mL) was >128 µg/mL, the “MIC ATB in combination” value ([3]; ECL 200138, AF3 @ 8 μg/mL) was >128 µg/mL and the “MIC ATB in combination” value ([3]; ECL 200138, CLA @ 4 μg/mL) was >128 µg/mL. For the same compound, the “MIC ATB in combination” value ([3]; ECL 200322, AF2 @ 8 μg/mL) was “<=0.25 μg/mL”, the “MIC ATB in combination” value ([3]; ECL 200322, AF3 @ 8 μg/mL) was <0.25 µg/mL and the “MIC ATB in combination” value ([3]; ECL 200322, CLA @ 4 μg/mL) was 64 µg/mL. The “MIC ATB in combination” value ([3]; ECL 260033, AF2 @ 8 μg/mL) was >128 µg/mL and the “MIC ATB in combination” value ([3]; ECL 260033, AF3 @ 8 μg/mL) was >128 µg/mL.
